Values after ≈ are worked out from the molar mass of the structure shown.
system: M tb H37Rv; assay: MIC determination against M tb H37Rv (green fluorescent protein reporter assay; MIC-MABA); format: cell-based, Mycobacterium tuberculosis; conditions: Mycobacterium tuberculosis, H37RV, 240 h, read-out: M. TB H37Rv: MIC-MABA: MIC, M. tb H37Rv; 7H9 broth; 10 days exposure; MIC = lowest concentration inhibiting fluorescence by 90%

Row | Compound | MIC [µg/mL]
1 | C[Si]1(C)CCC(NC(=O)c2cc3c(F)cncc3[nH]2)CC1 [MPL-191, N-(1,1-dimethylsilinan-4-yl)-4-fluoro-1H-pyrrolo[2,3-c]pyridine-2-carboxamide] | 0.0087 (≈ 0.0285 µM)
2 | Cc1cc2cc(C(=O)NC3CCC(C)(C)CC3)[nH]c2cn1 [MPL-125, N-(4,4-dimethylcyclohexyl)-5-methyl-1H-pyrrolo[2,3-c]pyridine-2-carboxamide] | 3.1 (≈ 10.9 µM)
3 | Cc1c(C(F)(F)F)ncc2[nH]c(C(=O)NC3CCC[Si](C)(C)CC3)cc12 (stereo not drawn) [MPL-451, N-(1,1-dimethylsilepan-4-yl)-4-methyl-5-(trifluoromethyl)-1H-pyrrolo[2,3-c]pyridine-2-carboxamide] | 0.99 (≈ 2.58 µM)
4 | C[C@@H]1[C@@H](NC(=O)c2cc3c(Cl)cncc3[nH]2)C[C@H]2C[C@@H]1C2(C)C [MPL-006, 4-chloro-N-[(1S,2S,3S,5R)-2,6,6-trimethylnorpinan-3-yl]-1H-pyrrolo[2,3-c]Pyridine-2-carboxamide] | 0.3 (≈ 0.904 µM)
5 | COc1ccc2cc(C(=O)NC3CCC[Si](C)(C)CCC3)[nH]c2n1 [MPL-469, N-(1,1-dimethylsilocan-5-yl)-6-methoxy-1H-pyrrolo[2,3-b]pyridine-2-carboxamide] | 0.206 (≈ 0.596 µM)
6 | COc1ccc2cc(C(=O)NC3CC[Si]4(CCCCC4)CC3)[nH]c2n1 [MPL-455, 6-methoxy-N-(6-silaspiro[5.5]undecan-3-yl)-1H-pyrrolo[2,3-b]pyridine-2-carboxamide] | 0.121 (≈ 0.338 µM)
7 | Cc1nc2[nH]c(C(=O)NC3CC[Si]4(CCCC4)CC3)cc2c(F)c1F [MPL-284, 4,5-difluoro-6-methyl-N-(5-silaspiro[4.5]decan-8-yl)-1H-pyrrolo[2,3-b]pyridine-2-carboxamide] | 0.026 (≈ 0.0715 µM)
8 | C[C@@H]1[C@@H](NC(=O)c2cc3c(F)cncc3[nH]2)C[C@H]2C[C@@H]1C2(C)C [MPL-092, 4-fluoro-N-[(1S,2S,3S,5R)-2,6,6-trimethylnorpinan-3-yl]-1H-pyrrolo[2,3-c]pyridine-2-carboxamide] | 1.2 (≈ 3.8 µM)
9 | Cc1cc(Cl)c2cc(C(=O)NC3CC[Si]4(CCCC4)CC3)[nH]c2n1 [MPL-276, 4-chloro-6-methyl-N-(5-silaspiro[4.5]decan-8-yl)-1H-pyrrolo[2,3-b]pyridine-2-carboxamide] | 0.015 (≈ 0.0414 µM)
10 | O=C(NC1CCCCCCC1)c1cc2c(F)ccnc2[nH]1 [MPL-027, N-cyclooctyl-4-fluoro-1H-pyrrolo[2,3-b]pyridine-2-carboxamide] | 0.61 (≈ 2.11 µM)
11 | Cc1ncc2[nH]c(C(=O)NC3CCC(C)(C)CC3)cc2c1F [MPL-141, N-(4,4-dimethylcyclohexyl)-4-fluoro-5-methyl-1H-pyrrolo[2,3-c]pyridine-2-carboxamide] | 0.29 (≈ 0.956 µM)
12 | CC1(C)CCC(NC(=O)c2cc3cc(F)ncc3[nH]2)CC1 [MPL-129, N-(4,4-dimethylcyclohexyl)-5-fluoro-1H-pyrrolo[2,3-c]pyridine-2-carboxamide] | 0.5 (≈ 1.73 µM)
13 | COc1c(C(F)(F)F)ncc2[nH]c(C(=O)NC3CC[Si](C)(C)CC3)cc12 [MPL-379, N-(1,1-dimethylsilinan-4-yl)-4-methoxy-5-(trifluoromethyl)-1H-pyrrolo[2,3-c]pyridine-2-carboxamide] | 0.332 (≈ 0.861 µM)
14 | Cc1ncc2[nH]c(C(=O)N[C@H]3C[C@H]4C[C@@H]([C@@H]3C)C4(C)C)cc2c1F [MPL-140, 4-fluoro-5-methyl-N-[(1S,2S,3S,5R)-2,6,6-trimethylnorpinan-3-yl]-1H-pyrrolo[2,3-c]pyridine-2-carboxamide] | 1.3 (≈ 3.95 µM)
15 | CC1(C)[C@H]2C[C@H](NC(=O)c3cc4c(C#N)ccnc4[nH]3)[C@](C)(O)[C@@H]1C2 [MPL-215, 4-cyano-N-[(1R,2R,3S,5R)-2-hydroxy-2,6,6-trimethyl-norpinan-3-yl]-1H-pyrrolo[2,3-b]pyridine-2-carboxamide] | 1.4 (≈ 4.14 µM)
16 | C[C@@H]1[C@@H](NC(=O)c2cc3c(C(F)(F)F)cncc3[nH]2)C[C@H]2C[C@@H]1C2(C)C [MPL-100, 4-(trifluoromethyl)-N-[(1S,2S,3S,5R)-2,6,6-trimethylnorpinan-3-yl]-1H-pyrrolo[2,3-c]pyridine-2-carboxamide] | 0.24 (≈ 0.657 µM)
17 | Cc1ncc2[nH]c(C(=O)NC3CCC[Si](C)(C)CC3)cc2c1F (stereo not drawn) [MPL-351, N-(1,1-dimethylsilepan-4-yl)-4-fluoro-5-methyl-1H-pyrrolo[2,3-c]pyridine-2-carboxamide] | 0.248 (≈ 0.744 µM)
18 | Cc1c(C(=O)NC2CC[Si](C)(C)CC2)[nH]c2nccc(F)c12 [MPL-210, N-(1,1-dimethylsilinan-4-yl)-4-fluoro-3-methyl-1H-pyrrolo[2,3-b]pyridine-2-carboxamide] | 0.058 (≈ 0.182 µM)
19 | CC1(C)C2CCC1(C)C(NC(=O)c1cc3c(C(F)(F)F)ccnc3[nH]1)C2 (stereo not drawn) [MPL-108, 4-(trifluoromethyl)-N-(1,7,7-trimethylnorbornan-2-yl)-1H-pyrrolo[2,3-b]pyridine-2-carboxamide] | 0.02 (≈ 0.0547 µM)
20 | Cc1cc(Cl)c2cc(C(=O)NC3CC[Si]4(CCCCC4)CC3)[nH]c2n1 [MPL-277, 4-chloro-6-methyl-N-(6-silaspiro[5.5]undecan-3-yl)-1H-pyrrolo[2,3-b]pyridine-2-carboxamide] | 0.045 (≈ 0.12 µM)
21 | O=C(NC1CCC2(CCC2)CC1)c1cc2c(F)ccnc2[nH]1 [MPL-002, 4-fluoro-N-spiro[3.5]nonan-7-yl-1H-pyrrolo[2,3-b]pyridine-2-carboxamide] | 0.056 (≈ 0.186 µM)

Row | Compound | MIC [µg/mL]
22 | Cc1cc(F)c2cc(C(=O)NC3CC[Si](C)(C)CC3)[nH]c2n1 [MPL-207, N-(1,1-dimethylsilinan-4-yl)-4-fluoro-6-methyl-1H-pyrrolo[2,3-b]pyridine-2-carboxamide] | 0.0045 (≈ 0.0141 µM)
23 | Cc1nc2[nH]c(C(=O)N[C@@H]3CC[Si](C)(C)C3)cc2c(F)c1F (single isomer, unassigned) [MPL-295A] | 0.22 (≈ 0.68 µM)
24 | Cc1cc(F)c2c(C)c(C(=O)NC3CC[Si]4(CCCC4)CC3)[nH]c2n1 [MPL-280, 4-fluoro-3,6-dimethyl-N-(5-silaspiro[4.5]decan-8-yl)-1H-pyrrolo[2,3-b]pyridine-2-carboxamide] | 0.043 (≈ 0.12 µM)
25 | O=C(NC1CC[Si]2(CCCC2)CC1)c1cc2c(F)cncc2[nH]1 [MPL-254, 4-fluoro-N-(5-silaspiro[4.5]decan-8-yl)-1H-pyrrolo[2,3-c]pyridine-2-carboxamide] | 0.2 (≈ 0.603 µM)
26 | COc1cncc2[nH]c(C(=O)NC3CC[Si](C)(C)CC3)cc12 [MPL-202, N-(1,1-dimethylsilinan-4-yl)-4-methoxy-1H-pyrrolo[2,3-c]pyridine-2-carboxamide] | 0.11 (≈ 0.346 µM)
27 | Cc1nc2[nH]c(C(=O)NC3CCC[Si](C)(C)CC3)cc2c(F)c1F (stereo not drawn) [MPL-282, N-(1,1-dimethylsilepan-4-yl)-4,5-difluoro-6-methyl-1H-pyrrolo[2,3-b]pyridine-2-carboxamide] | < 0.004
28 | C[Si]1(C)CCC(NC(=O)c2cc3c(Cl)cncc3[nH]2)CC1 [MPL-192, 4-chloro-N-(1,1-dimethylsilinan-4-yl)-1H-pyrrolo[2,3-c]pyridine-2-carboxamide] | 0.0093 (≈ 0.0289 µM)
29 | Cc1nc2[nH]c(C(=O)N[C@H]3CCC[Si](C)(C)CC3)cc2c(F)c1F (single isomer, unassigned) [MPL-282B] | 0.197 (≈ 0.56 µM)
30 | CC1(C)CCC(NC(=O)c2cc3c(Cl)cncc3[nH]2)CC1 [MPL-003, 4-chloro-N-(4,4-dimethylcyclohexyl)-1H-pyrrolo[2,3-c]pyridine-2-carboxamide] | 0.01 (≈ 0.0327 µM)
31 | Cc1nc2[nH]c(C(=O)N[C@H]3C[C@H]4C[C@@H]([C@@H]3C)C4(C)C)cc2c(F)c1F [MPL-066, 4,5-difluoro-6-methyl-N-[(1S,2S,3S,5R)-2,6,6-trimethylnorpinan-3-yl]-1H-pyrrolo[2,3-b]pyridine-2-carboxamide] | 0.012 (≈ 0.0345 µM)
32 | Cc1ncc2[nH]c(C(=O)NC3CCC[Si](C)(C)CC3)c(C)c2c1F (stereo not drawn) [MPL-353, N-(1,1-dimethylsilepan-4-yl)-4-fluoro-3,5-dimethyl-1H-pyrrolo[2,3-c]pyridine-2-carboxamide] | 0.124 (≈ 0.357 µM)
33 | Cc1cc2cc(C(=O)N[C@H]3C[C@H]4C[C@@H]([C@@H]3C)C4(C)C)[nH]c2c(F)n1 [MPL-122, 7-fluoro-5-methyl-N-[(1S,2S,3S,5R)-2,6,6-trimethylnorpinan-3-yl]-1H-pyrrolo[2,3-c]pyridine-2-carboxamide] | 3.1 (≈ 9.41 µM)
34 | C[Si]1(C)CCC(NC(=O)c2cc3ccc(-c4cccnc4)nc3[nH]2)CC1 [MPL-389, N-(1,1-dimethylsilinan-4-yl)-6-(3-pyridyl)-1H-pyrrolo[2,3-b]pyridine-2-carboxamide] | 0.216 (≈ 0.593 µM)
35 | C[Si]1(C)CCC(NC(=O)c2cc3c(Cl)c(C(F)(F)F)ncc3[nH]2)CC1 [MPL-329, 4-chloro-N-(1,1-dimethylsilinan-4-yl)-5-(trifluoromethyl)-1H-pyrrolo[2,3-c]pyridine-2-carboxamide] | 0.491 (≈ 1.26 µM)
36 | CC1(C)CCC(NC(=O)c2cc3c(F)c(Cl)ncc3[nH]2)CC1 [MPL-139, 5-chloro-N-(4,4-dimethylcyclohexyl)-4-fluoro-1H-pyrrolo[2,3-c]pyridine-2-carboxamide] | 0.24 (≈ 0.741 µM)
37 | Cc1cc(C)c2cc(C(=O)NC3CCCCCCC3)[nH]c2n1 [MPL-041, N-cyclooctyl-4,6-dimethyl-1H-pyrrolo[2,3-b]pyridine-2-carboxamide] | 8.5 (≈ 28.4 µM)
38 | N#Cc1cncc2[nH]c(C(=O)NC3CCCCCCC3)cc12 [MPL-096, 4-cyano-N-cyclooctyl-1H-pyrrolo[2,3-c]pyridine-2-carboxamide] | 0.47 (≈ 1.59 µM)
39 | COc1ccnc2[nH]c(C(=O)NC3CCCCCCC3)cc12 [MPL-038, N-cyclooctyl-4-methoxy-1H-pyrrolo[2,3-b]pyridine-2-carboxamide] | 6.2 (≈ 20.6 µM)
40 | CC1(C)[C@H]2C[C@H](NC(=O)c3cc4c(F)cncc4[nH]3)[C@](C)(O)[C@@H]1C2 [MPL-221, 4-fluoro-N-[(1R,2R,3S,5R)-2-hydroxy-2,6,6-trimethyl-norpinan-3-yl]-1H-pyrrolo[2,3-c]pyridine-2-carboxamide] | 0.2 (≈ 0.604 µM)
41 | Cc1cc(F)c2cc(C(=O)NC3CC[Si]4(CCCC4)CC3)[nH]c2n1 [MPL-253, 4-fluoro-6-methyl-N-(5-silaspiro[4.5]decan-8-yl)-1H-pyrrolo[2,3-b]pyridine-2-carboxamide] | 0.056 (≈ 0.162 µM)
42 | O=C(NC1CC[Si]2(CCCCC2)CC1)c1cc2cc(-c3cccnc3)cnc2[nH]1 [MPL-435, 5-(3-pyridyl)-N-(6-silaspiro[5.5]undecan-3-yl)-1H-pyrrolo[2,3-b]pyridine-2-carboxamide] | 1 (≈ 2.47 µM)

From patent US20230002372A1, “AZAINDOLE CARBOXAMIDE COMPOUNDS FOR THE TREATMENT OF MYCOBACTERIAL INFECTIONS” (THE GLOBAL ALLIANCE FOR TB DRUG DEVELOPMENT, INC., priority 2019, published 2023)
